Data: PMC6128854 (Scientific Reports, 2018)

Tested on: high voltage-activated (HVA) calcium channel currents in rat DRG neurons
Assay type: cell-based

ω-agatoxin
further inhibition of the residual Ba2+ currents: 20%
